31 molecules from patent US9242998B2, “Tetracyclic heterocycle compounds and methods of use thereof for the treatment of hepatitis C” (priority 2013, dated 2016) can be followed below.

One assay relates to HCV genotype 1a replicon. Put plainly: HCV replicon assay, genotype 1a (cell ELISA for replicon-encoded NS3/4A). The assay is classed as cell-based. The conditions noted are these: Hepatitis C virus, 96 h, read-out: 1a IC50. How it is done: (§1) Measurement of inhibition by compounds was performed using the HCV replicon system. Several different replicons encoding different HCV genotypes or mutations were used. In addition, potency measurements were made using different formats of the replicon assay, including different ways of measurements and different plating formats. See Jan M. Vrolijk et al., A replicons-based bioassay for the measurement of interferons in patients with chronic hepatitis C, 110 J. V[…] 201 (2003); Steven S. Carroll et al., Inhibition of Hepatitis C Virus RNA Replication by 2′-Modified Nucleoside Analogs, 278(14) J. BIOLOGICAL CHEMISTRY 11979 (2003). However, the underlying principles are common to all of these determinations, and are outlined below.
(§2) Stable neomycin phosphotransferase encoding replicons-harboring cell lines were used, so all cell lines were maintained under G418 selection prior to the assay. Potency was determined using a cell ELISA assay with an antibody to the replicons encoded NS3/4a protease. See Caterina Trozzi et al., In Vitro Selection and Characterization of Hepatitis C Virus Serine Protease Variants Resistant to an Active-Site Peptide Inhibitor, 77(6) J. Virol. 3669 (2003). To initiate an assay, replicon cells were plated in the presence of a dilution series of test compound in the absence of G418. Typically, the assays were performed in a 96-well plate formate for manual operation, or a 384-well plate format for automated assay. Replicon cells and compound were incubated for 96 hours. At the end of the assay, cells were washed free of media and compound, and the cells were then lysed. RNA was quantified indirectly through detection of replicon-encoded NS3/4A protein levels, through an ELISA-based assay with an antibody specific for NS3/4A. IC50 determinations were calculated as a percentage of a DMSO control by fitting the data to a four-parameter fit function and the data obtained is provided in the table below.
(§3) Data for selected compounds of the present invention was obtained for genotypes 1a and 1b using this method and is provided in the table below: […]
In general terms: Replicon systems follow genome replication, usually without infectious particles.

In the next assay the test system is HCV genotype 1b replicon. Put plainly: HCV replicon assay, genotype 1b (cell ELISA for replicon-encoded NS3/4A). The note with it: Hepatitis C virus, 96 h, read-out: 1b IC50. The assay is classed as cell-based. As to the method: as §1, §2, §3

Turning to `CNC(=O)c1c(-n2cnc(C)n2)oc2cc(N(C)S(C)(=O)=O)c(-c3ccc4c(n3)-c3cc5c(F)cccc5n3CO4)cc12` [Compound 41], the IC50 (as a rule, the midpoint of a concentration-inhibition curve) in the assay on HCV genotype 1a replicon came to 82 nM; with HCV genotype 1b replicon it was 22 nM.
`CNC(=O)c1c(C2=CCCC2)oc2cc(N(C)S(C)(=O)=O)c(-c3ccc4c(n3)-c3cc5ccccc5n3CO4)cc12` [Compound 44, 2-(cyclopent-1-en-1-yl)-N-methyl-6-(N-methylmethylsulfonamido)-5-(6H-pyrido[2′,3′:5,6][1,3]oxazino[3,4-a]indol-2-yl)benzofuran-3-carboxamide]: the IC50 in the assay on HCV genotype 1a replicon is 6.2 nM; in the assay with HCV genotype 1b replicon, 8.3 nM.
Turning to `CNC(=O)c1c(-c2ccc(OC)nc2)oc2cc(N(C)S(C)(=O)=O)c(-c3ccc4c(n3)-c3cc5c(F)cccc5n3CO4)cc12` [Compound 11], the IC50 with HCV genotype 1a replicon turned out to be 7.2 nM; in the assay with HCV genotype 1b replicon it was 8.4 nM.
With `CNC(=O)c1c(-c2ccc(OC(C)C)nc2)oc2cc(N(C)S(C)(=O)=O)c(-c3ccc4c(n3)-c3cc5c(F)cccc5n3CO4)cc12` [Compound 10], the IC50 in the assay on HCV genotype 1a replicon was determined as 15 nM; in the assay on HCV genotype 1b replicon, 13 nM.
As for `CNC(=O)c1c(-c2cccnc2OC)oc2cc(N(C)S(C)(=O)=O)c(-c3ccc4c(n3)-c3cc5c(F)cccc5n3CO4)cc12` [Compound 15], the IC50 amounted to 23 nM in the assay with HCV genotype 1a replicon and 34 nM in the assay on HCV genotype 1b replicon.
The matching figures for `CNC(=O)c1c(-n2ccc(C)cc2=O)oc2cc(N(C)S(C)(=O)=O)c(-c3ccc4c(n3)-c3cc5c(F)cccc5n3CO4)cc12` [Compound 38]: 3.5 nM and 2.7 nM.
On to `CNC(=O)c1c(C2CC2)oc2cc(N(C)S(C)(=O)=O)c(-c3cc4c(cn3)OC(CO)n3c-4cc4c(F)cccc43)cc12` (centres unmarked) [Compound 52], for which the IC50 in the assay with HCV genotype 1a replicon is 52 nM; with HCV genotype 1b replicon, 23 nM.
For `CNC(=O)c1c(-c2cnn(C(C)C)c2)oc2cc(N(C)S(C)(=O)=O)c(-c3ccc4c(n3)-c3cc5c(F)cccc5n3CO4)cc12` [Compound 34], in that order: 15 nM and 14 nM.
`CNC(=O)c1c(C(=O)N2CCOCC2)oc2cc(N(C)S(C)(=O)=O)c(-c3ccc4c(n3)-c3cc5c(F)cccc5n3CO4)cc12` [Compound 57]: the values for the IC50 with HCV genotype 1a replicon and in the assay on HCV genotype 1b replicon were 232 nM and 135 nM, respectively.
Regarding `CNC(=O)c1c(C2CC2(C)C)oc2cc(N(C)S(C)(=O)=O)c(-c3ccc4c(n3)-c3cc5c(F)cccc5n3CO4)cc12` (centres unmarked) [Compound 49], the figures for the IC50 in the assay on HCV genotype 1a replicon and in the assay on HCV genotype 1b replicon were 27 nM and 22 nM, respectively.
In the case of `CNC(=O)c1c(-c2ccc(C(F)F)nc2)oc2cc(N(C)S(C)(=O)=O)c(-c3ccc4c(n3)-c3cc5c(F)cccc5n3C(CO)O4)cc12` (centres unmarked) [Compound 22], the values for the IC50 with HCV genotype 1a replicon and with HCV genotype 1b replicon were 3.5 nM and 2.5 nM, respectively.
For `CNC(=O)c1c(C2=CCSCC2)oc2cc(N(C)S(C)(=O)=O)c(-c3ccc4c(n3)-c3cc5c(F)cccc5n3CO4)cc12` [Compound 32, 2-(3,6-dihydro-2H-thiopyran-4-yl)-5-(11-fluoro-6H-pyrido[2′,3′:5,6][1,3]oxazino[3,4-a]indol-2-yl)-N-methyl-6-(N-methylmethylsulfonamido)benzofuran-3-carboxamide], in that order: 36 nM and 14 nM.
The matching figures for `CNC(=O)c1c(C=C(C)C)oc2cc(N(C)S(C)(=O)=O)c(-c3ccc4c(n3)-c3cc5c(F)cccc5n3CO4)cc12` [Compound 3]: 3.6 nM and 5.8 nM.
Take `CNC(=O)c1c(-c2cnn(C)c2)oc2cc(N(C)S(C)(=O)=O)c(-c3ccc4c(n3)-c3cc5c(F)cccc5n3CO4)cc12` [Compound 5]: the IC50 in the assay with HCV genotype 1a replicon came out at 4.4 nM; in the assay on HCV genotype 1b replicon it was 7.5 nM.
Consider `CNC(=O)c1c(-c2ccc(C(F)(F)F)nc2)oc2cc(N(C)S(C)(=O)=O)c(-c3ccc4c(n3)-c3cc5c(F)cccc5n3CO4)cc12` [Compound 35], for which the IC50 in the assay on HCV genotype 1a replicon is 2.8 nM; in the assay on HCV genotype 1b replicon, 3.1 nM.
For the molecule `CNC(=O)c1c(C23CCCC2C3)oc2cc(N(C)S(C)(=O)=O)c(-c3ccc4c(n3)-c3cc5c(F)cccc5n3CO4)cc12` (centres unmarked) [Compound 48, 2-(bicyclo[3.1.0]hexan-1-yl)-5-(11-fluoro-6H-pyrido[2′,3′:5,6][1,3]oxazino[3,4-a]indol-2-yl)-N-methyl-6-(N-methylmethylsulfonamido)benzofuran-3-carboxamide], the IC50 in the assay with HCV genotype 1a replicon worked out at 28 nM; in the assay on HCV genotype 1b replicon, 34 nM.
In the case of `CNC(=O)c1c(-c2ccc(OCC(F)(F)F)nc2)oc2cc(N(C)S(C)(=O)=O)c(-c3ccc4c(n3)-c3cc5c(F)cccc5n3C(CO)O4)cc12` (centres unmarked) [Compound 24], the IC50 turned out to be 1.7 nM in the assay on HCV genotype 1a replicon and 1.4 nM in the assay on HCV genotype 1b replicon.
For `CNC(=O)c1c(C(=O)N(C)C)oc2cc(N(C)S(C)(=O)=O)c(-c3ccc4c(n3)-c3cc5c(F)cccc5n3CO4)cc12` [Compound 55], in that order: 4 nM and 6.4 nM.
As to `CNC(=O)c1c(-c2ccc(C(F)F)nc2)oc2cc(N(C)S(C)(=O)=O)c(-c3ccc4c(n3)-c3cc5c(F)cccc5n3CO4)cc12` [Compound 9], the IC50 with HCV genotype 1a replicon is 2.5 nM; in the assay on HCV genotype 1b replicon, 3.4 nM.
As to `CNC(=O)c1c(C2=CCCC2)oc2cc(N(C)S(C)(=O)=O)c(-c3ncc4c(n3)-c3cc5ccccc5n3CO4)cc12` [Compound 46], the IC50 was determined as 15 nM with HCV genotype 1a replicon and 13 nM with HCV genotype 1b replicon.
On to `CNC(=O)c1c(C2CC2(F)F)oc2cc(N(C)S(C)(=O)=O)c(-c3ccc4c(n3)-c3cc5c(F)cccc5n3CO4)cc12` (centres unmarked) [Compound 50, 2-(2,2-difluorocyclopropyl)-5-(11-fluoro-6H-pyrido[2′,3′:5,6][1,3]oxazino[3,4-a]indol-2-yl)-N-methyl-6-(N-methylmethylsulfonamido)benzofuran-3-carboxamide], for which the IC50 with HCV genotype 1a replicon was determined as 22 nM; with HCV genotype 1b replicon, 38 nM.
On to `CNC(=O)c1c(-c2cn(C)nc2C)oc2cc(N(C)S(C)(=O)=O)c(-c3ccc4c(n3)-c3cc5c(F)cccc5n3CO4)cc12` [Compound 16], for which the IC50 in the assay on HCV genotype 1a replicon came to 26 nM; in the assay with HCV genotype 1b replicon, 8.5 nM.
Turning to `CNC(=O)c1c(-c2ccc(=O)n(C(F)F)c2)oc2cc(N(C)S(C)(=O)=O)c(-c3ccc4c(n3)-c3cc5c(F)cccc5n3CO4)cc12` [Compound 26, 2-(1-(difluoromethyl)-6-oxo-1,6-dihydropyridin-3-yl)-5-(11-fluoro-6H-pyrido[2′,3′:5,6][1,3]oxazino[3,4-a]indol-2-yl)-N-methyl-6-(N-methylmethylsulfonamido)benzofuran-3-carboxamide], the IC50 in the assay on HCV genotype 1a replicon came out at 118 nM; in the assay with HCV genotype 1b replicon, 108 nM.
For `CNC(=O)c1c(-n2cc(C)cn2)oc2cc(N(C)S(C)(=O)=O)c(-c3ccc4c(n3)-c3cc5c(F)cccc5n3CO4)cc12` [Compound 39], in that order: 48 nM and 67 nM.
Regarding `CNC(=O)c1c(C2=CCCC2)oc2cc(N(C)S(C)(=O)=O)c(-c3ccc4c(n3)-c3cc5c(F)cccc5n3CO4)cc12` [Compound 45], the IC50 with HCV genotype 1a replicon stood at 6.1 nM; with HCV genotype 1b replicon, 6.4 nM.
Take `CNC(=O)c1c(-c2nnc(C)o2)oc2cc(N(C)S(C)(=O)=O)c(-c3ccc4c(n3)-c3cc5c(F)cccc5n3CO4)cc12` [Compound 58, 5-(11-fluoro-6H-pyrido[2′,3′:5,6][1,3]oxazino[3,4-a]indol-2-yl)-N-methyl-2-(5-methyl-1,3,4-oxadiazol-2-yl)-6-(N-methylmethylsulfonamido)benzofuran-3-carboxamide]: the IC50 in the assay on HCV genotype 1a replicon was 8.1 nM; in the assay with HCV genotype 1b replicon it was 7.9 nM.
The matching figures for `CNC(=O)c1c(-c2ccc(C(F)F)cc2)oc2cc(N(C)S(C)(=O)=O)c(-c3ccc4c(n3)-c3cc5c(F)cccc5n3CO4)cc12` [Compound 28, 2-(4-(difluoromethyl)phenyl)-5-(11-fluoro-6H-pyrido[2′,3′:5,6][1,3]oxazino[3,4-a]indol-2-yl)-N-methyl-6-(N-methylmethylsulfonamido)benzofuran-3-carboxamide]: 9 nM and 6.9 nM.
Regarding `CNC(=O)c1c(-c2ccc(C#N)cc2)oc2cc(N(C)S(C)(=O)=O)c(-c3ccc4c(n3)-c3cc5c(F)cccc5n3CO4)cc12` [Compound 29, 2-(4-cyanophenyl)-5-(11-fluoro-6H-pyrido[2′,3′:5,6][1,3]oxazino[3,4-a]indol-2-yl)-N-methyl-6-(N-methylmethylsulfonamido)benzofuran-3-carboxamide], the IC50 is 13 nM in the assay on HCV genotype 1a replicon and 25 nM with HCV genotype 1b replicon.
For the molecule `CNC(=O)c1c(C2CC2)oc2cc(N(C)S(C)(=O)=O)c(-c3ncc4c(n3)-c3cc5c(F)cccc5n3CO4)cc12` [Compound 53], the IC50 in the assay on HCV genotype 1a replicon was determined as 33 nM; in the assay on HCV genotype 1b replicon, 30 nM.
For `CNC(=O)c1c(-n2ccccc2=O)oc2cc(N(C)S(C)(=O)=O)c(-c3ccc4c(n3)-c3cc5c(F)cccc5n3CO4)cc12` [Compound 37], in that order: 2.2 nM and 3 nM.
Turning to `CNC(=O)c1c(-c2ccc(OCC(F)(F)F)nc2)oc2cc(N(C)S(C)(=O)=O)c(-c3ccc4c(n3)-c3cc5c(F)cccc5n3CO4)cc12` [Compound 12], the IC50 was 2.7 nM in the assay with HCV genotype 1a replicon and 1.8 nM with HCV genotype 1b replicon.
